Laboratory results from patent EP0145314A1, “Antifungal triazole compound” (IMPERIAL CHEMICAL INDUSTRIES PLC, priority 1983, dated 1985).

Tests used:
[1] = Teratogenicity / maternal toxicity in the rabbit; format: in vivo; conditions: lowest dose at which impaired maternal weight gain was observed
Protocol: As indicated above, the compound of this invention has been found not to be teratogenic at doses up to the maternally toxic dose. In both the rabbit and the rat, the maternally toxic dose was taken to be the lowest dose at which impaired maternal weight gain was observed. In the rabbit, this dose was 10 mg./kg. and in the rat between 25 and 50 mg./kg.

[2] = test system: Candida albicans and Trichophyton mentagrophytes var. quinkeanum; test: Oral antifungal test in mice inoculated with Candida (vagina) and Trichophyton (back), minimum effective dose; format: in vivo; conditions: 168 h; female mice, oral dosing twice on day 0 and once daily on days 1-4; skin lesions scored and vaginal samples cultured on day 7; read-out: minimum effective dose (MED)
Protocol: The following Monday (day 0) they are clipped on the back and then dosed orally with the test compound. They are then inoculated with Candida albicans in the vagina and Trichophyton mentagrophytes var. quinkeanum on the back, and then given a second dose of the same compound. Dosing is repeated once daily on days 1-4. On day 7 skin lesions are scored visually and vaginal samples taken for culture on agar. Groups of 5 mice are used and the compound is dosed initially at a level of 250 mg./kg. The dose is then reduced sequentially until a minimum effective dose (MED) is found. The MED for 2-(2-fluoro-4-trifluoromethylphenyl)-l,3-di(l,2,4-triazol-l-yl)-2-propanol in this test was 5 mg. per kg.

OC(Cn1cncn1)(Cn1cncn1)c1ccc(C(F)(F)F)cc1F [2-(2-fluoro-4-trifluoromethylphenyl)-l,3-di(l,2,4-triazol-l-yl)-2-propanol]
maternally toxic dose [1]: 10 mg/kg | minimal effective dose [2]: 5 mg/kg
